Values of other authors, collected in patent US20230158084A1, “PROBIOTICS, METABOLITES, AND USES THEREOF” (California Institute of Technology, priority 2018, published 2023).

Conditions: adult mice; cited from earlier work

C1=NCCCC1 [1-piperideine]
conversion to 5AV in the brain: rapidly converted to 5AV
entry into the brain: can enter the brain
